This assay concerns BDF1 mice, P388 leukemia ip, median survival T/C. The assay is described as follows: NCI In Vivo Anticancer Drug Screen. Data for tumor model P388 Leukemia (intraperitoneal) in B6D2F1 (BDF1) mice. Particulars: endpoint: median survival time, higher = longer survival. The essentials:
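T/C = treated-group survival ÷ vehicle-control survival; tumour transplanted into mice before dosing.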

[1] abbreviates: dose: 100.0 mg/kg/injection, schedule: Q04DX003 (ip), vehicle: saline.
The mark [2] stands for this setting: dose: 50.0 mg/kg/injection, schedule: Q01DX009 (ip), vehicle: saline with Tween-80.
The mark [3] stands for this setting: dose: 100.0 mg/kg/injection, schedule: Q01DX009 (ip), vehicle: saline with Tween-80.
Setting [4] is: dose: 200.0 mg/kg/injection, schedule: Q01DX009 (ip), vehicle: saline with Tween-80.
The mark [5] stands for this setting: dose: 100.0 mg/kg/injection, schedule: Q01DX001 (ip), vehicle: Klucel (hydroxypropylcellulose) (HPC).
Where [6] appears, read: dose: 100.0 mg/kg/injection, schedule: Q04DX003 (ip), vehicle: Klucel (hydroxypropylcellulose) (HPC).
The mark [7] stands for this setting: dose: 200.0 mg/kg/injection, schedule: Q01DX001 (ip), vehicle: Klucel (hydroxypropylcellulose) (HPC).

“And” between values parts separate entries of the source, which are not always exact repeats. Equal entries are not always repeated. Toxic doses and inconclusive results are not listed.

For the compound `Cc1ccc2nc3c4ccccc4c4ccccc4c3nc2c1`, the T/C was 109 % of control (dose: 100.0 mg/kg/injection, schedule: Q01DX009 (ip), vehicle: Klucel (hydroxypropylcellulose) (HPC)); 90 % of control (dose: 200.0 mg/kg/injection, schedule: Q01DX009 (ip), vehicle: Klucel (hydroxypropylcellulose) (HPC)); 100 % of control (dose: 400.0 mg/kg/injection, schedule: Q01DX009 (ip), vehicle: Klucel (hydroxypropylcellulose) (HPC)).

Take `CCOC(=O)/C=C\CBr`: the T/C runs as follows: (dose: 1.5 mg/kg/injection, schedule: Q01DX010 (ip), vehicle: saline) 100 % of control; (dose: 3.0 mg/kg/injection, schedule: Q01DX010 (ip), vehicle: saline) 100 % of control; (dose: 6.0 mg/kg/injection, schedule: Q01DX010 (ip), vehicle: saline) 105 % of control; (dose: 12.0 mg/kg/injection, schedule: Q01DX010 (ip), vehicle: saline) 100 % of control and 115 % of control; (dose: 24.0 mg/kg/injection, schedule: Q01DX010 (ip), vehicle: saline) 100 % of control; (dose: 48.0 mg/kg/injection, schedule: Q01DX010 (ip), vehicle: saline) 120 % of control.

With `Cc1cc(N(CCCl)CCCl)ccc1N=Nc1ccccc1C(=O)O`, the T/C reads like this: (dose: 5.0 mg/kg/injection, schedule: Q01DX010 (ip), vehicle: saline) 150 % of control; (dose: 10.0 mg/kg/injection, schedule: Q01DX010 (ip), vehicle: saline) 175 % of control; (dose: 20.0 mg/kg/injection, schedule: Q01DX010 (ip), vehicle: saline) 210 % of control; (dose: 40.0 mg/kg/injection, schedule: Q01DX010 (ip), vehicle: saline) 95 % of control.

Take `NNC(=O)c1ccc(Cl)cc1Nc1ccc(F)cc1`: the T/C (dose: 50.0 mg/kg/injection, schedule: Q04DX003 (ip), vehicle: saline) was 104 % of control and the T/C under setting [1] is 100 % of control.

On to `O=C1C=C2SCCN2C(=O)C1`, for which the T/C (dose: 25.0 mg/kg/injection, schedule: Q01DX009 (ip), vehicle: saline with Tween-80) is 99 % of control; the T/C under setting [2] is 99 % of control and 109 % of control; the T/C under setting [3] is 97 % of control and 124 % of control; the T/C under setting [4] is 105 % of control and 114 % of control.

On to `O=C(O)c1c[nH]c2nccnc12`, for which the T/C reads like this: (dose: 25.0 mg/kg/injection, schedule: Q01DX009 (ip), vehicle: water) 98 % of control; (dose: 25.0 mg/kg/injection, schedule: Q04DX003 (ip), vehicle: water) 103 % of control; (dose: 50.0 mg/kg/injection, schedule: Q04DX003 (ip), vehicle: water) 99 % of control; (dose: 100.0 mg/kg/injection, schedule: Q01DX009 (ip), vehicle: water) 88 % of control; (dose: 100.0 mg/kg/injection, schedule: Q04DX003 (ip), vehicle: water) 103 % of control; (dose: 200.0 mg/kg/injection, schedule: Q04DX003 (ip), vehicle: water) 103 % of control. The T/C (dose: 400.0 mg/kg/injection, schedule: Q04DX003 (ip), vehicle: water) is 92 % of control.

`O=C(c1ccccc1)C1(Br)CCCCC1`: the T/C runs as follows: (dose: 75.0 mg/kg/injection, schedule: Q01DX009 (ip), vehicle: Klucel (hydroxypropylcellulose) (HPC)) 104 % of control; under setting [5], 100 % of control; under setting [6], 109 % of control; (dose: 150.0 mg/kg/injection, schedule: Q01DX009 (ip), vehicle: Klucel (hydroxypropylcellulose) (HPC)) 95 % of control; under setting [7], 104 % of control; (dose: 200.0 mg/kg/injection, schedule: Q04DX003 (ip), vehicle: Klucel (hydroxypropylcellulose) (HPC)) 104 % of control. For the same compound, the T/C reads like this: (dose: 300.0 mg/kg/injection, schedule: Q01DX009 (ip), vehicle: Klucel (hydroxypropylcellulose) (HPC)) 86 % of control; (dose: 400.0 mg/kg/injection, schedule: Q01DX001 (ip), vehicle: Klucel (hydroxypropylcellulose) (HPC)) 104 % of control; (dose: 400.0 mg/kg/injection, schedule: Q04DX003 (ip), vehicle: Klucel (hydroxypropylcellulose) (HPC)) 109 % of control.

Take `O=C(COc1ccc([N+](=O)[O-])cc1)Nc1cccnc1`: the T/C reads like this: (dose: 100.0 mg/kg/injection, schedule: Q04DX003 (ip), vehicle: saline with Tween-80) 100 % of control; (dose: 400.0 mg/kg/injection, schedule: Q04DX003 (ip), vehicle: saline with Tween-80) 100 % of control.

As to `CN=C(NC(C)C)c1ccc(NC(=O)c2ccc(C(=O)Nc3ccc(C(=NC)NC(C)C)cc3)cc2)cc1`, the T/C is, setting by setting: (dose: 16.0 mg/kg/injection, schedule: Q04DX003 (ip), vehicle: saline with Tween-80) 118 % of control; (dose: 42.2 mg/kg/injection, schedule: Q04DX003 (ip), vehicle: saline with Tween-80) 150 % of control; (dose: 64.0 mg/kg/injection, schedule: Q04DX003 (ip), vehicle: saline with Tween-80) 150 % of control; (dose: 96.0 mg/kg/injection, schedule: Q04DX003 (ip), vehicle: saline with Tween-80) 150 % of control.

On to `CC(=O)[O][Hg][c]1cc(-c2ccc(N=Nc3c(S(=O)(=O)O)cc4cccc(N)c4c3O)cc2)ccc1N=Nc1c(S(=O)(=O)O)cc2cccc(N)c2c1O`, for which the T/C (dose: 1.5 mg/kg/injection, schedule: Q01DX009 (ip), vehicle: saline with Tween-80) is 100 % of control; the T/C (dose: 3.0 mg/kg/injection, schedule: Q01DX009 (ip), vehicle: saline with Tween-80) is 100 % of control; the T/C (dose: 6.0 mg/kg/injection, schedule: Q01DX009 (ip), vehicle: saline with Tween-80) was 95 % of control.

With `Cn1c(CS)nc2ccccc21`, the T/C runs as follows: (dose: 12.5 mg/kg/injection, schedule: Q04DX003 (ip), vehicle: Klucel (hydroxypropylcellulose) (HPC)) 104 % of control; (dose: 25.0 mg/kg/injection, schedule: Q04DX003 (ip), vehicle: Klucel (hydroxypropylcellulose) (HPC)) 102 % of control; (dose: 50.0 mg/kg/injection, schedule: Q04DX003 (ip), vehicle: Klucel (hydroxypropylcellulose) (HPC)) 105 % of control; under setting [6], 96 % of control.

For the compound `Cc1cc(=O)oc2c(N)nccc12`, the T/C (dose: 12.5 mg/kg/injection, schedule: Q01DX005 (ip), vehicle: saline with Tween-80) was 121 % of control.

In the case of `Cc1cnc2c(C)cccc2c1/C=C/c1ccc(N(C)C)cc1`, the T/C was 116 % of control under setting [2], 116 % of control under setting [3] and 103 % of control under setting [4].

On to `CCN1CC=CCC1`, for which the T/C is, setting by setting: (dose: 25.0 mg/kg/injection, schedule: Q01DX009 (ip), vehicle: saline) 95 % of control; (dose: 25.0 mg/kg/injection, schedule: Q04DX003 (ip), vehicle: saline) 95 % of control and 104 % of control and 118 % of control; (dose: 35.0 mg/kg/injection, schedule: Q04DX003 (ip), vehicle: saline) 109 % of control; (dose: 50.0 mg/kg/injection, schedule: Q01DX009 (ip), vehicle: saline) 100 % of control; (dose: 75.0 mg/kg/injection, schedule: Q04DX003 (ip), vehicle: saline) 86 % of control; (dose: 100.0 mg/kg/injection, schedule: Q01DX009 (ip), vehicle: saline) 116 % of control. The T/C under setting [1] is 109 % of control.

As to `CCCCCCCCS.[Ni]`, the T/C reads like this: under setting [5], 100 % of control; under setting [6], 113 % of control; under setting [7], 100 % of control.

As to `NS(=O)(=O)c1ccc(N=Nc2nc3ncnc(SCc4cccs4)c3[nH]2)cc1`, the T/C was 95 % of control (dose: 100.0 mg/kg/injection, schedule: Q01DX009 (ip), vehicle: other); 104 % of control under setting [1]; 118 % of control (dose: 200.0 mg/kg/injection, schedule: Q01DX009 (ip), vehicle: other); 104 % of control (dose: 200.0 mg/kg/injection, schedule: Q04DX003 (ip), vehicle: saline); 86 % of control (dose: 400.0 mg/kg/injection, schedule: Q01DX009 (ip), vehicle: other); 108 % of control (dose: 400.0 mg/kg/injection, schedule: Q04DX003 (ip), vehicle: saline).
